Test results published in patent US20200181284A1, “EPIGENETIC INHIBITORS FOR SENSITIZING HEMATOLOGIC OR OTHER MALIGNANCIES TO GLUCOCORTICOID THERAPY” (UNIVERSITY OF SOUTHERN CALIFORNIA, priority 2017, published 2020).

System: G9a methylation
Assay: G9a methylation level in NALM6 cells treated with KDM inhibitors
Format: cell-based, human
Description: There are two distinct families of KDM with distinct catalytic mechanisms (FIG. 50B). We tested one inhibitor for each family: OG-L002 inhibits the two members of the LSD family of KDM, and JIB-04 inhibits several members of the large JmjC family of KDM, including members of the KDM2, KDM3, and KDM4 subfamilies. We propose that there is an equilibrium between the enzymes that methylate G9a and GLP (in this case they methylate themselves) and the KDM enzymes to maintain a moderate level of G9a/GLP methylation (FIGS. 50C-1, 50C-2), and that inhibition of the KDMs that normally demethylate G9a and GLP (currently unknown) will increase the level of G9a/GLP methylation and thereby enhance the coactivator activity of G9a/GLP, the GC activation of the cell death genes, and GC-induced cell death in B-ALL cells. Thus, as a first step to identify the G9a/GLP-specific demethylases, we treated NALM6 cells with the two inhibitors named above. OG-L002 had no effect on the level of G9a methylation, but JIB-04 increased the level of G9a methylation in NALM6 cells (FIG. 50D).

For `Clc1ccc(N/N=C(\c2ccccc2)c2ccccn2)nc1` [JIB-04, 5-chloro-N-[(E)-[phenyl(pyridin-2-yl)methylidene]amino]pyridin-2-amine], which “level of G9a methylation” value is on record?
Its value is “increased”.
